# Laboratory results as given in patent publication US8575193B2, “N-substituted tetrahydroisoquinoline/isoindoline hydroxamic acid compounds” (4SC AG, priority 2008, dated 2013).
# Where a name gives a salt, the structure may show the parent alone.
# Molecular target: T1, rHDAC6 (Homo sapiens, UniProt Q9UBN7)
# T1 construct: FLAG; made in house
# T1 sequence (Q9UBN7 1-1215): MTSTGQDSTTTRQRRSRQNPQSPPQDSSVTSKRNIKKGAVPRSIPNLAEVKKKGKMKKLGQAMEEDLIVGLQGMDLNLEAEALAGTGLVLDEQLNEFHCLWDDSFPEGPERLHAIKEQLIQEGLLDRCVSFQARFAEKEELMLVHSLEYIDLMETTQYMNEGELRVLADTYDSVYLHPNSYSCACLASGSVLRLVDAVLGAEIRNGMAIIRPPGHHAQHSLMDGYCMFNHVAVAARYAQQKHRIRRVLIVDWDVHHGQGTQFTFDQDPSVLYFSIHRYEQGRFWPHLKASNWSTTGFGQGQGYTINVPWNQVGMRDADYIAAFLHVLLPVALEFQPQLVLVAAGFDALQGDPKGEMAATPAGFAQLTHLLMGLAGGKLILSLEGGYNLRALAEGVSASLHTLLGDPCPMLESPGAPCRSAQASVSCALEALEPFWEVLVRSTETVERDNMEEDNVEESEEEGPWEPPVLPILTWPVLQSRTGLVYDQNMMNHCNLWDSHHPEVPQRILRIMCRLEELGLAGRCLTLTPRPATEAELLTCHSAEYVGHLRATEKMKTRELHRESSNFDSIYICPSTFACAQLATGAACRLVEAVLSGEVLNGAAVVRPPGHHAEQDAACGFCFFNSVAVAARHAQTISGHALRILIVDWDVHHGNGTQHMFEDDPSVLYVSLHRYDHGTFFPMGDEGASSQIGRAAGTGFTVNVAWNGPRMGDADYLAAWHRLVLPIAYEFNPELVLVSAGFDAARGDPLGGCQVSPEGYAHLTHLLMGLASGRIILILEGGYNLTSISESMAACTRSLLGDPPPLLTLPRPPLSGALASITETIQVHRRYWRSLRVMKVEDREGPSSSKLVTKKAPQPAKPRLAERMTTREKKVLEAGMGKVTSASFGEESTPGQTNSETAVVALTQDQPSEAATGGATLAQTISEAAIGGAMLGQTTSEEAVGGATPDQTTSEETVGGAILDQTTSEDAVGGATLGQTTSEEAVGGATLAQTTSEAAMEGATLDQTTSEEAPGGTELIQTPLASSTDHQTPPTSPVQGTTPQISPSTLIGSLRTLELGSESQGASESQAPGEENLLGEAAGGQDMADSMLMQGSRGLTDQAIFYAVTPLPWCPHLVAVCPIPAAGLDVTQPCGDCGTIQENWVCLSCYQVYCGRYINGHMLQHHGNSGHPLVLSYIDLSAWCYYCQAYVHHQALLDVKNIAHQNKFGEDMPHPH
# Assay: rHDAC6 enzymatic assay (recombinant FLAG-HDAC6)
# Type: biochemical
# Details: FLAG-HDAC6 from HEK293; 10 μM Ac-NH-GGK(Ac)-AMC, 3 h at 30° C.; read-out: rHDAC6 [pIC50] (converted)
# Description: Human HDAC1 and HDAC6 fused with the FLAG epitope are stably expressed in HEK293 cells while human HDAC3 and HDAC8 fused with the FLAG epitope are overexpressed in baculo-virus infected insect (Sf21) cells. To ensure stability of FLAG-HDAC3 the SMRT protein is co-expressed in the corresponding insect cells. […] FLAG-HDAC3 and FLAG-HDAC8 are also purified by M2-agarose affinity chromatography after mass cultivation of the insect cells and cell lysis.
# The HDAC enzyme activity assay is done as described by Wegener et al. (Chem. & Biol. 10, 61-68, 2003). Briefly 40 μl of a 1:100 dilution (=0.4 μl) nuclear HeLa extract (mixture of class I and II HDACs), 29 μl enzyme buffer (15 mM Tris HCl pH 8.1, 0.25 mM EDTA, 250 mM NaCl, 10% v:v glycerol) and 1 μl test compound are added to a well of a 96 well microtiter plate and reaction started by addition of 3 μl substrate (Ac-NH-GGK(Ac)-AMC; final concentration 25 μM and final volume […]). […] After incubation at room temperature for further 40 min, fluorescence is measured using a Wallac Victor 1420 multilabel counter (Ex 355 nm, Em 460 nm) for quantification of AMC (7-amino-4-methylcoumarin) generated by trypsine cleavage of the deacetylated peptide. […] The corresponding pIC50 values of the compounds for HDAC inhibitory activity are determined from the concentration-effect curves by means of non-linear regression (Graphpad Prism software).
# The HDAC1, HDAC3 and HDAC6 enzymatic assays are done with slight modifications with recombinant FLAG-HDAC1 and FLAG-HDAC6 proteins isolated from HEK293 cell lysates or recombinant FLAG-HDAC3 isolated from insect cells, respectively. The HDAC8 enzymatic assay using recombinant FLAG-HDAC8 isolated from insect cells is done with a different substrate. About 4.5 ng/well FLAG-HDAC1 and 3.1 ng/well FLAG-HDAC6 (dependent on batches and specific activity) are incubated with 6 μM or 10 μM Ac-NH-GGK(Ac)-AMC substrate, respectively, for 3 h at 30° C. About 1.7 ng/well FLAG-HDAC3 is incubated with 6 μM Ac-NH-GGK(Ac)-AMC substrate for 2 h at 30° C., while approximately 130 ng/well FLAG-HDAC8 is incubated with 50 μM Ac-RHK(Ac)K(Ac)-AMC substrate for 3 h at 30° C. Termination of the reaction and all further steps are done as described for HeLa cell nuclear extracts as a source for HDAC enzymatic activity. The corresponding pIC50 values of the compounds for HDAC1, HDAC3, HDAC6 and HDAC8 inhibitory activity are determined from the concentration-effect curves by means of non-linear regression.
row,Compound,IC50
1,"COCCCNC(=O)N1CCc2cc(C(=O)NO)ccc2C1 [Example 5, N6-Hydroxy-N2-(3-methoxypropyl)-3,4-dihydroisoquinoline-2,6(1H)-dicarboxamide]",1 to 100 nM
2,"Cc1nccn1CC(=O)N1CCc2cc(C(=O)NO)ccc2C1 [Example 10, N-Hydroxy-2-[(2-methyl-1H-imidazol-1-yl)acetyl]-1,2,3,4-tetrahydroisoquinoline-6-carboxamide hydrochloride]",100 to 1000 nM
3,"O=C(NO)c1ccc2c(c1)CCN(C(=O)CCc1cccnc1)C2 [Example 7, N-Hydroxy-2-(3-pyridin-3-ylpropanoyl)-1,2,3,4-tetrahydroisoquinoline-6-carboxamide hydrochloride]",1 to 100 nM
4,"O=C(NO)c1ccc2c(c1)CCN(C(=O)Cc1cccnc1)C2 [Example 8, N-Hydroxy-2-(pyridin-3-ylacetyl)-1,2,3,4-tetrahydroisoquinoline-6-carboxamide hydrochloride]",100 to 1000 nM
5,"CNC(=O)N1CCc2cc(C(=O)NO)ccc2C1 [Example 4, N6-Hydroxy-N2-methyl-3,4-dihydroisoquinoline-2,6(1H)-dicarboxamide]",1 to 100 nM
6,"COCCCOC(=O)N1CCc2cc(C(=O)NO)ccc2C1 [Example 6, 3-Methoxypropyl-6-(hydroxycarbamoyl)-3,4-dihydroisoquinoline-2(1H)-carboxylate]",100 to 1000 nM
7,"CN(C)CCCC(=O)N1CCc2cc(C(=O)NO)ccc2C1 [Example 9, 2-[4-(Dimethylamino)butanoyl]-N-hydroxy-1,2,3,4-tetrahydroisoquinoline-6-carboxamide hydrochloride]",100 to 1000 nM
8,"O=C(NO)c1ccc2c(c1)CCN(C(=O)C1CCC1)C2 [Example 3, 2-(Cyclobutylcarbonyl)-N-hydroxy-1,2,3,4-tetrahydroisoquinoline-6-carboxamide]",1 to 100 nM
9,"O=C(NO)c1ccc2c(c1)CCN(C(=O)Cc1c[nH]c3ccccc13)C2 [Example 1, N-Hydroxy-2-(indol-3-ylacetyl)-1,2,3,4-tetrahydroisoquinoline-6-carboxamide hydrochloride]",1 to 100 nM
10,"COCCOCC(=O)N1CCc2cc(C(=O)NO)ccc2C1 [Example 11, N-Hydroxy-2-[(2-methoxyethoxy)acetyl]-1,2,3,4-tetrahydroisoquinoline-6-carboxamide]",100 to 1000 nM

# Further lines, results first:
row,IC50,Compound
1,100 to 1000 nM,"O=C(NO)c1ccc2c(c1)CN(C(=O)C1CCOC1)CC2 (stereo not shown) [Example 20, N-Hydroxy-2-(tetrahydrofuran-3-ylcarbonyl)-1,2,3,4-tetrahydroisoquinoline-7-carboxamide]"
2,1 to 100 nM,"Cc1ccc(C(=O)N2CCc3ccc(C(=O)NO)cc3C2)cc1 [Example 23, N-Hydroxy-2-(4-methylbenzoyl)-1,2,3,4-tetrahydroisoquinoline-7-carboxamide]"
3,1 to 100 nM,"O=C(NO)c1ccc2c(c1)CN(C(=O)NCCc1ccccc1)CC2 [Example 22, N7-Hydroxy-N2-(2-phenylethyl)-3,4-dihydroisoquinoline-2,7(1H)-dicarboxamide]"
4,1 to 100 nM,"O=C(NO)c1ccc2c(c1)CN(C(=O)Cc1c[nH]c3ccccc13)CC2 [Example 18, N-Hydroxy-2-(1H-indol-3-ylacetyl)-1,2,3,4-tetrahydroisoquinoline-7-carboxamide]"
5,1 to 100 nM,"CC#CC(=O)N1CCc2ccc(C(=O)NO)cc2C1 [Example 17, 2-But-2-ynoyl-N-hydroxy-1,2,3,4-tetrahydroisoquinoline-7-carboxamide]"
6,1 to 100 nM,"O=C(NO)c1ccc2c(c1)CN(C(=O)Cc1ccccn1)CC2 [Example 21, N-Hydroxy-2-(pyridin-2-ylacetyl)-1,2,3,4-tetrahydroisoquinoline-7-carboxamide hydrochloride]"
7,100 to 1000 nM,"CC(=O)N1CCc2cc(C(=O)NO)ccc2C1 [Example 12, 2-Acetyl-N-hydroxy-1,2,3,4-tetrahydroisoquinoline-6-carboxamide]"
8,1 to 100 nM,"COc1ccc2[nH]c(C(=O)N3CCc4cc(C(=O)NO)ccc4C3)cc2c1 [Example 15, N-Hydroxy-2-[(5-methoxy-1H-indol-2-yl)carbonyl]-1,2,3,4-tetrahydroisoquinoline-6-carboxamide]"
9,1 to 100 nM,"COc1ccc2[nH]c(C(=O)N3CCc4ccc(C(=O)NO)cc4C3)cc2c1 [Example 24, N-Hydroxy-2-[(5-methoxy-1H-indol-2-yl)carbonyl]-1,2,3,4-tetrahydroisoquinoline-7-carboxamide]"
10,100 to 1000 nM,"O=C(NO)c1ccc2c(c1)CCN(C(=O)C1CCOC1)C2 (stereo not shown) [Example 13, N-Hydroxy-2-(tetrahydrofuran-3-ylcarbonyl)-1,2,3,4-tetrahydroisoquinoline-6-carboxamide]"
11,1 to 100 nM,"O=C(NO)c1ccc2c(c1)CN(C(=O)Cc1cccnc1)CC2 [Example 19, N-Hydroxy-2-(pyridin-3-ylacetyl)-1,2,3,4-tetrahydroisoquinoline-7-carboxamide hydrochloride]"
12,1 to 100 nM,"O=C(NO)c1ccc2c(c1)CCN(C(=O)C1CC1)C2 [Example 16, N-Hydroxy-2-(cyclopropylcarbonyl)-1,2,3,4-tetrahydroisoquinoline-6-carboxamide]"
